Drawing on article PMC10313052, “Filarial DAF-12 sense the host serum to resume iL3 development during infection” (PLOS Pathogens, 2023), this text covers EC50 for one molecule.

Structures are written as SMILES.

The target in this test is T1, BmaDAF-12 (Brugia malayi, UniProt A0A4E9F2L4, R841H).
T1 sequence (A0A4E9F2L4 639-880 R841H): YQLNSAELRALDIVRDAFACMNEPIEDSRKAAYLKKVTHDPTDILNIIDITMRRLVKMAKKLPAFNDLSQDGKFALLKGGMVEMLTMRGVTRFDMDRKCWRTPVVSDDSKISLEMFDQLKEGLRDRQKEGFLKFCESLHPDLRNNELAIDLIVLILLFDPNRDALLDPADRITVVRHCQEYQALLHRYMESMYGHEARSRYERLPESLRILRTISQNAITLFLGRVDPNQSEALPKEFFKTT
As to the kind of experiment: cell-based.

`CC(CCCC(C)C1CCC2C3=CCC4CC(=O)CCC4(C)C3CCC21C)C(=O)O` [Δ7-dafachronic acid, (25S)-Δ7-dafachronic acid]: the EC50 was 1.8 nM.
